Experimental data reported in patent publication EP4810038A1, “METHOD FOR TREATING ALK-POSITIVE OR ROS1-POSITIVE NON-SMALL CELL LUNG CANCER” (Shenzhen TargetRx Co., Ltd., priority 2023, dated 2025).
Values joined by “and” are separate entries in the source; they are usually repeats but may differ in a detail not shown here. Equal values may be shown once.

How the values were obtained:
[1] = tested on: Ba/F3 (SLC34A2-ROS1 G2032R) cell line; assay: Anti-tumor effect in subcutaneous transplanted Ba/F3 (SLC34A2-ROS1 G2032R) model; assay type: in vivo, NOD-SCID mice; settings: for average tumor volume: 21st day after administration
Description: Housing environment: SPF grade.
Environmental conditions of the housing room of the laboratory animals: All the laboratory animals were housed in individually ventilated cages with constant temperature and constant humidity. […] The animals were continuously provided with cobalt-60 irradiated complete pelleted mouse feed with unlimited free access. The animals drank tap water (used after being autoclaved), which was provided continuously from water bottles, allowing for free access. The cages for raising the mice were polysulfone mice cages, which were autoclaved before use, and measured 325 mm × 210 mm × 180 mm. The bedding was autoclaved corn cobs. Each cage contained 5 animals. The cage cards were marked with the IACUC approval number, experiment number, start time of the experiment, project leader, experimenters, source of the animals, group, and animal number. The laboratory animals were marked with ear tags or ear labels.
The Ba/F3 (SLC34A2-ROS1 G2032R) cells in the exponential growth phase were collected, resuspended in PBS to a suitable concentration, and then subcutaneously inoculated into nude mice for tumor formation.
Assay method: Female NOD/SCID mice were subcutaneously inoculated with 2×10^6 Ba/F3 (SLC34A2-ROS1 G2032R) cells on the right side to establish a subcutaneous tumor transplantation model. […] The mice were administered orally via gavage once daily. The efficacy was evaluated based on the relative tumor growth inhibition rate (TGI), and the safety was evaluated based on the changes in the body weight and mortality of the animals.
All the procedures, including drug administration, tumor measurement, weight measurement, etc., were performed in a biosafety cabinet or on a clean bench.
The relative tumor growth rate (T/C%) was the percentage value of the relative tumor volume between a treatment group and the control group at a certain time point, or the percentage value of the tumor weight between a treatment group and the control group. The calculation formula was: T/C% = TRTV / CRTV × 100% (TRTV: the average RTV of the treatment group; CRTV: the average RTV of the solvent control group; RTV = Vt / V0, wherein V0 is the tumor volume of the animal at the time of grouping, and Vt is the tumor volume of the animal after treatment); or T/C% = TTW / CTW × 100% (TTW: the average tumor weight at the end of the assay in the treatment group; CTW: the average tumor weight at the end of the assay in the solvent control group).
Statistical analysis: To compare the tumor volume on a given day across the different treatment groups, we first used the Bartlett's test to verify the assumption of homogeneity of variance among all the groups. When the p-value of the Bartlett's test was not less than 0.05, one-way ANOVA was used to test whether the means of all the groups were equal. If the p-value of the one-way ANOVA was less than 0.05, we would use the Tukey's HSD test for the pairwise comparisons between all the groups, or use the Dunnett's test for a pairwise comparison between each treatment group and the control group. When the p-value of the Bartlett's test was less than 0.05, the Kruskal-Wallis test was used to test whether the medians of all the groups were equal. […]

[2] = tested on: ALK fusion; assay: Phase I clinical trial: biomarker analysis of 26 subjects previously treated with at least one ALK inhibitor
[3] = bypass signaling alteration BRCA1
[4] = bypass signaling alteration BRCA2
[5] = bypass signaling alteration CCNE1
[6] = bypass signaling alteration CDKN2A
[7] = bypass signaling alteration EGFR
[8] = bypass signaling alteration IGF1R
[9] = bypass signaling alteration KIT
[10] = bypass signaling alteration MET
[11] = bypass signaling alteration RB1
[12] = bypass signaling alteration TP53

Structure (SMILES): [2H]C([2H])([2H])n1nc2c(c1C#N)-c1cnc(N)c(c1)O[C@H](C)c1cc(F)ccc1C(=O)N(C)C2 [compound A, (10R)-7-amino-12-fluoro-2-(methyl-d3)-10,16-dimethyl-15-oxo-10,15,16,17-tetrahydro-2H-8,4-(metheno)pyrazolo[4,3-h][2,5,11]benzoxadiazacyclotetradecine-3-carbonitrile]
- average tumor volume ([1]; 1.5 mg/kg p.o. once daily): 1334.38 mm^3
- average tumor volume ([1]; 5 mg/kg p.o. once daily): 305.46 mm^3
- average tumor volume ([1]; 15 mg/kg p.o. once daily): 0 mm^3
- tumor-bearing mice with tumor volume reduced to 0 ([1]; 15 mg/kg, end of the assay): 10/10
- PFS, mutant TP53 versus wild-type TP53 ([2]; ALK TKI resistance subgroup, P=0.235): no difference
- Disease control rate (CR + PR + SD) ([2]; ALK fusion (all 26 subjects)): 20/26
- Overall response rate (CR + PR) ([2]; ALK fusion (all 26 subjects)): 11/26
- Partial response ([2]; ALK fusion (all 26 subjects)): 11 and 11/26
- Progressive disease ([2]; ALK fusion (all 26 subjects)): 6/26
- Stable disease ([2]; ALK fusion (all 26 subjects)): 9/26
- Disease control rate (CR + PR + SD) ([2]; ALK fusion V1): 4/6
- Overall response rate (CR + PR) ([2]; ALK fusion V1): 2/6
- Partial response ([2]; ALK fusion V1): 2/6
- Progressive disease ([2]; ALK fusion V1): 2/6
- Stable disease ([2]; ALK fusion V1): 2/6
- Disease control rate (CR + PR + SD) ([2]; ALK fusion V2): 3/3
- Overall response rate (CR + PR) ([2]; ALK fusion V2): 1/3
- Partial response ([2]; ALK fusion V2): 1/3
- Progressive disease ([2]; ALK fusion V2): 0/3
- Stable disease ([2]; ALK fusion V2): 2/3
- Disease control rate (CR + PR + SD) ([2]; ALK fusion V3): 7/8
- Overall response rate (CR + PR) ([2]; ALK fusion V3): 5/8
- Partial response ([2]; ALK fusion V3): 5/8
- Progressive disease ([2]; ALK fusion V3): 1/8
- Stable disease ([2]; ALK fusion V3): 2/8
- Disease control rate (CR + PR + SD) ([2]; ALK fusion V5): 1/1
- Overall response rate (CR + PR) ([2]; ALK fusion V5): 1/1
- Partial response ([2]; ALK fusion V5): 1/1
- Progressive disease ([2]; ALK fusion V5): 0/1
- Stable disease ([2]; ALK fusion V5): 0/1
- Disease control rate (CR + PR + SD) ([2]; ALK fusion others): 5/8
- Overall response rate (CR + PR) ([2]; ALK fusion others): 2/8
- Partial response ([2]; ALK fusion others): 2/8
- Progressive disease ([2]; ALK fusion others): 3/8
- Stable disease ([2]; ALK fusion others): 3/8
- Disease control rate (CR + PR + SD) ([2]; ALK mutation (any)): 10/12
- Overall response rate (CR + PR) ([2]; ALK mutation (any)): 5/12
- Partial response ([2]; ALK mutation (any)): 5/12
- Progressive disease ([2]; ALK mutation (any)): 2/12
- Stable disease ([2]; ALK mutation (any)): 5/12
- Disease control rate (CR + PR + SD) ([2]; ALK mutation p.E1210K p.D1203N): 0/1
- Overall response rate (CR + PR) ([2]; ALK mutation p.E1210K p.D1203N): 0/1
- Partial response ([2]; ALK mutation p.E1210K p.D1203N): 0/1
- Progressive disease ([2]; ALK mutation p.E1210K p.D1203N): 1/1
- Stable disease ([2]; ALK mutation p.E1210K p.D1203N): 0/1
- Disease control rate (CR + PR + SD) ([2]; ALK mutation p.G1202R): 5/6
- Overall response rate (CR + PR) ([2]; ALK mutation p.G1202R): 3/6
- Partial response ([2]; ALK mutation p.G1202R): 3/6
- Progressive disease ([2]; ALK mutation p.G1202R): 1/6
- Stable disease ([2]; ALK mutation p.G1202R): 2/6
- Disease control rate (CR + PR + SD) ([2]; ALK mutation p.I1171N): 1/1
- Overall response rate (CR + PR) ([2]; ALK mutation p.I1171N): 0/1
- Partial response ([2]; ALK mutation p.I1171N): 0/1
- Progressive disease ([2]; ALK mutation p.I1171N): 0/1
- Stable disease ([2]; ALK mutation p.I1171N): 1/1
- Disease control rate (CR + PR + SD) ([2]; ALK mutation p.I1171T): 1/1
- Overall response rate (CR + PR) ([2]; ALK mutation p.I1171T): 0/1
- Partial response ([2]; ALK mutation p.I1171T): 0/1
- Progressive disease ([2]; ALK mutation p.I1171T): 0/1
- Stable disease ([2]; ALK mutation p.I1171T): 1/1
- Disease control rate (CR + PR + SD) [2, 3]: 0/1
- Overall response rate (CR + PR) [2, 3]: 0/1
- Partial response [2, 3]: 0/1
- Progressive disease [2, 3]: 1/1
- Stable disease [2, 3]: 0/1
- Disease control rate (CR + PR + SD) [2, 4]: 1/1
- Overall response rate (CR + PR) [2, 4]: 1/1
- Partial response [2, 4]: 1/1
- Progressive disease [2, 4]: 0/1
- Stable disease [2, 4]: 0/1
- Disease control rate (CR + PR + SD) [2, 5]: 1/1
- Overall response rate (CR + PR) [2, 5]: 1/1
- Partial response [2, 5]: 1/1
- Progressive disease [2, 5]: 0/1
- Stable disease [2, 5]: 0/1
- Disease control rate (CR + PR + SD) [2, 6]: 1/1
- Overall response rate (CR + PR) [2, 6]: 0/1
- Partial response [2, 6]: 0/1
- Progressive disease [2, 6]: 0/1
- Stable disease [2, 6]: 1/1
- Disease control rate (CR + PR + SD) [2, 7]: 1/1
- Overall response rate (CR + PR) [2, 7]: 0/1
- Partial response [2, 7]: 0/1
- Progressive disease [2, 7]: 0/1
- Stable disease [2, 7]: 1/1
- Disease control rate (CR + PR + SD) [2, 8]: 0/1
- Overall response rate (CR + PR) [2, 8]: 0/1
- Partial response [2, 8]: 0/1
- Progressive disease [2, 8]: 1/1
- Stable disease [2, 8]: 0/1
- Disease control rate (CR + PR + SD) [2, 9]: 1/1
- Overall response rate (CR + PR) [2, 9]: 1/1
- Partial response [2, 9]: 1/1
- Progressive disease [2, 9]: 0/1
- Stable disease [2, 9]: 0/1
- Disease control rate (CR + PR + SD) [2, 10]: 2/2
- Overall response rate (CR + PR) [2, 10]: 1/2
- Partial response [2, 10]: 1/2
- Progressive disease [2, 10]: 0/2
- Stable disease [2, 10]: 1/2
- Disease control rate (CR + PR + SD) [2, 11]: 0/1
- Overall response rate (CR + PR) [2, 11]: 0/1
- Partial response [2, 11]: 0/1
- Progressive disease [2, 11]: 1/1
- Stable disease [2, 11]: 0/1
- Disease control rate (CR + PR + SD) [2, 12]: 7/9
- Overall response rate (CR + PR) [2, 12]: 4/9
- Partial response [2, 12]: 4/9
- Progressive disease [2, 12]: 2/9
- Stable disease [2, 12]: 3/9
- ORR ([2]; subjects with G1202R mutation): 50%
- ORR ([2]; subjects with variant 1): 33.3%
- ORR ([2]; subjects with variant 3): 62.5%
